According to patent publication US12054494B2, “Compound with anticancer activity” (KYOWA KIRIN CO., LTD., priority 2018, dated 2024):

system: SU-DHL-4 cells; assay: Inhibitory effect on cell viability (Cell Counting Kit-8); assay type: cell-based; conditions: Homo sapiens, 72 hours culture with test compound, concentration showing 90% inhibition rate of cell viability
Summary of the method: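 IC90 corresponds to 90% loss of viability, measured as CCK-8 absorbance at 450 nm (2-3 h colour development). Compounds in 9 dilutions (0.1% DMSO) were applied for 72 h at 37° C to SU-DHL-4 lymphoma cells seeded at 2000/well in RPMI1640/10% FBS after 18-25 h preculture.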

IC90	Compound
26.6 nM	CCC(=O)N1c2ccccc2[C@H](Nc2ccc(NC(=O)[C@H](C)NC(=O)c3ccc(N[C@@H]4C[C@H](C)N(C(=O)CC)c5ccccc54)cc3)cc2)C[C@@H]1C (relative stereo) [Compound 2d, 4-{[(2S,4R)-2-Methyl-1-propionyl-1,2,3,4-tetrahydroquinolin-4-yl]amino}-N-{(S)-1-[(4-{[(2S*,4R*)-2-methyl-1-propionyl-1,2,3,4-tetrahydroquinolin-4-yl]amino}phenyl)amino]-1-oxopropan-2-yl}benzamide]
5.08 nM	CCC(=O)N1c2ccccc2[C@H](Nc2ccc(CN3CC(C(=O)Nc4ccc(N[C@@H]5C[C@H](C)N(C(=O)CC)c6ccccc65)cc4)C3)cc2)C[C@@H]1C [Compound 6d, 1-(4-(((2S,4R)-2-Methyl-1-propionyl-1,2,3,4-tetrahydroquinolin-4-yl)amino)benzyl)-N-(4-(((2S,4R)-2-methyl-1-propionyl-1,2,3,4-tetrahydroquinolin-4-yl)amino)phenyl)azetidine-3-carboxamide]
0.59 nM	CCC(=O)N1c2ccccc2[C@H](Nc2ccc(NC(=O)CC[S+]([O-])c3ccc(N[C@@H]4C[C@H](C)N(C(=O)CC)c5ccccc54)cc3)cc2)C[C@@H]1C (stereo partly drawn) [Compound 5m, N-(4-(((2S,4R)-2-Methyl-1-propionyl-1,2,3,4-tetrahydroquinolin-4-yl)amino)phenyl)-3-((4-(((2S,4R)-2-methyl-1-propionyl-1,2,3,4-tetrahydroquinolin-4-yl)amino)phenyl)sulfinyl)propanamide]
2.4 nM	CCC(=O)N1c2ccccc2[C@H](Nc2ccc(NC(=O)C3CN(C(=O)N4CCC(N[C@@H]5C[C@H](C)N(C(=O)CC)c6ccccc65)CC4)C3)cc2)C[C@@H]1C [Compound 10a, N-(4-(((2S,4R)-2-Methyl-1-propionyl-1,2,3,4-tetrahydroquinolin-4-yl)amino)phenyl)-1-(4-(((2S,4R)-2-methyl-1-propionyl-1,2,3,4-tetrahydroquinolin-4-yl)amino)piperidine-1-carbonyl)azetidine-3-carboxamide]
0.53 nM	CCC(=O)N1c2ccccc2[C@H](Nc2ccc(C(=O)NC3CCN(C(=O)c4ccc(C5=NCc6nnc(C)n6-c6sc(C)c(C)c65)cc4)CC3)cc2)C[C@@H]1C [Compound 1m, 4-{[(2S,4R)-2-Methyl-1-propionyl-1,2,3,4-tetrahydroquinolin-4-yl]amino}-N-{1-[4-(2,3,9-trimethyl-6H-thieno[3,2-f][1,2,4]triazolo[4,3-a][1,4]diazepin-4-yl)benzoyl]piperidin-4-yl}benzamide]
0.6 nM	CCC(=O)N1c2ccccc2[C@H](Nc2ccc(-n3cc(CNC(=O)N4CCC(N[C@@H]5C[C@H](C)N(C(=O)CC)c6ccccc65)CC4)nn3)cc2)C[C@@H]1C (relative stereo) [Compound 10b, 4-(((2S*,4R*)-2-Methyl-1-propionyl-1,2,3,4-tetrahydroquinolin-4-yl)amino)-N-((1-(4-(((2S,4R)-2-methyl-1-propionyl-1,2,3,4-tetrahydroquinolin-4-yl)amino)phenyl)-1H-1,2,3-triazol-4-yl)methyl)piperidine-1-carboxamide]
0.3 nM	CCC(=O)N1c2ccccc2[C@H](Nc2ccc(-n3cc(CCNC(=O)c4ccc(Cn5c(C(=O)OCCN(C)C)cc6c5CCCC6=O)cc4)nn3)cc2)C[C@@H]1C [Compound 15c, 2-(Dimethylamino)ethyl 1-(4-((2-(1-(4-(((2S,4R)-2-methyl-1-propionyl-1,2,3,4-tetrahydroquinolin-4-yl)amino)phenyl)-1H-1,2,3-triazol-4-yl)ethyl)carbamoyl)benzyl)-4-oxo-4,5,6,7-tetrahydro-1H-indole-2-carboxylate]
1.48 nM	CCC(=O)N1c2ccccc2[C@H](Nc2ccc(C(=O)NCCC(=O)Nc3ccc(N[C@@H]4C[C@H](C)N(C(=O)CC)c5ccccc54)nc3)cc2)C[C@@H]1C (relative stereo) [Compound 10o, 4-(((2S,4R)-2-Methyl-1-propionyl-1,2,3,4-tetrahydroquinolin-4-yl)amino)-N-(3-((6-(((2S*,4R*)-2-methyl-1-propionyl-1,2,3,4-tetrahydroquinolin-4-yl)amino)pyridin-3-yl)amino)-3-oxopropyl)benzamide]
0.26 nM	Cc1sc2c(c1C)C(c1ccc(NC(=O)C#CCNC(=O)c3ccc(C4=NCc5nnc(C)n5-c5sc(C)c(C)c54)cc3)cc1)=NCc1nnc(C)n1-2 [Compound 14e, N-(4-Oxo-4-((4-(2,3,9-trimethyl-6H-thieno[3,2-f][1,2,4]triazolo[4,3-a][1,4]diazepin-4-yl)phenyl)amino)but-2-yn-1-yl)-4-(2,3,9-trimethyl-6H-thieno[3,2-f][1,2,4]triazolo[4,3-a][1,4]diazepin-4-yl)benzamide]
0.31 nM	CCC(=O)N1c2ccccc2[C@H](Nc2ccc(NS(=O)(=O)CCNC(=O)c3ccc(N[C@@H]4C[C@H](C)N(C(=O)CC)c5ccccc54)cc3)cc2)C[C@@H]1C [Compound 6g, 4-(((2S,4R)-2-Methyl-1-propionyl-1,2,3,4-tetrahydroquinolin-4-yl)amino)-N-(2-(N-(4-(((2S,4R)-2-methyl-1-propionyl-1,2,3,4-tetrahydroquinolin-4-yl)amino)phenyl)sulfamoyl)ethyl)benzamide]
1.07 nM	CCC(=O)N1c2ccccc2[C@H](Nc2ccc(-c3nnc(CNC(=O)c4ccc(Cn5c(C(=O)OCCN(C)C)cc6c5CCCC6=O)cc4)o3)cc2)C[C@@H]1C [Compound 15b, 2-(Dimethylamino)ethyl 1-(4-(((5-(4-(((2S,4R)-2-methyl-1-propionyl-1,2,3,4-tetrahydroquinolin-4-yl)amino)phenyl)-1,3,4-oxadiazol-2-yl)methyl)carbamoyl)benzyl)-4-oxo-4,5,6,7-tetrahydro-1H-indole-2-carboxylate]
0.04 nM	CCC(=O)N1c2ccccc2[C@H](Nc2ccc(-c3cnn(CC(=O)Nc4ccc(C5=NCc6nnc(C)n6-c6sc(C)c(C)c65)cc4)c3)cc2)C[C@@H]1C [Compound 14a, 2-(4-(4-(((2S,4R)-2-Methyl-1-propionyl-1,2,3,4-tetrahydroquinolin-4-yl)amino)phenyl)-1H-pyrazol-1-yl)-N-(4-(2,3,9-trimethyl-6H-thieno[3,2-f][1,2,4]triazolo[4,3-a][1,4]diazepin-4-yl)phenyl)acetamide]
2.15 nM	CCC(=O)N1c2ccccc2[C@H](Nc2ccc(NC(=O)c3coc(Nc4ccc(N[C@@H]5C[C@H](C)N(C(=O)CC)c6ccccc65)cc4)n3)cc2)C[C@@H]1C [Compound 5a, N-(4-(((2S,4R)-2-Methyl-1-propionyl-1,2,3,4-tetrahydroquinolin-4-yl)amino)phenyl)-2-((4-(((2S,4R)-2-methyl-1-propionyl-1,2,3,4-tetrahydroquinolin-4-yl)amino)phenyl)amino)oxazole-4-carboxamide]
2.32 nM	CCC(=O)N1c2ccccc2[C@H](Nc2ccc(C(=O)NCc3cn(-c4ccc(Cn5c(CC)cc6c5CCCC6=O)cc4)nn3)cc2)C[C@@H]1C [Compound 15h, N-((1-(4-((2-Ethyl-4-oxo-4,5,6,7-tetrahydro-1H-indol-1-yl)methyl)phenyl)-1H-1,2,3-triazol-4-yl)methyl)-4-(((2S,4R)-2-methyl-1-propionyl-1,2,3,4-tetrahydroquinolin-4-yl)amino)benzamide]
0.31 nM	CCC(=O)N1c2ccccc2[C@H](Nc2ccc(NC(=O)CNC(=O)Nc3ccc(C4=NCc5nnc(C)n5-c5sc(C)c(C)c54)cc3)cc2)C[C@@H]1C [Compound 14f, N-(4-(((2S,4R)-2-Methyl-1-propionyl-1,2,3,4-tetrahydroquinolin-4-yl)amino)phenyl)-2-(3-(4-(2,3,9-trimethyl-6H-thieno[3,2-f][1,2,4]triazolo[4,3-a][1,4]diazepin-4-yl)phenyl)ureido)acetamide]
41.5 nM	CCC(=O)N1c2ccccc2[C@H](Nc2ccc(C(=O)N3CCCN(C(=O)c4ccc(N[C@@H]5C[C@H](C)N(C(=O)CC)c6ccccc65)cc4)CC3)cc2)C[C@@H]1C [Compound 6p, 1,1′-((2S,2′S,4R,4′R)-(((1,4-Diazepane-1,4-dicarbonyl)bis(4,1-phenylene))bis(azanediyl))bis(2-methyl-3,4-dihydroquinoline-4,1(2H)-diyl))bis(propan-1-one)]
